For this series, the system named is ND3 neuronal cell line. Briefly: Measurement of nerve growth stimulation effect (neurite bearing assay, neurite length assay, number of cells). Format: cell-based. Particulars: ND3 cells, 6 h, relative cell number, DMSO well = 1. In a few lines: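 ND3 cells were exposed 6 h to compounds in DMEM with 0.1% BSA (0.1% DMSO final), in duplicate. Neurite-bearing fraction (neurite longer than cell-body diameter) and neurite length per cell were scored by imaging and expressed relative to compound 24 maximum. Cell number was relative to DMSO wells; data with relative count <0.5 were excluded.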

In the case of `CCCC1=C(CCCCCCCCCCCCCCCOC)C(C)(C)CCC1=O` [Compound 61, 3-(15-methoxypentadecyl)-4,4-dimethyl-2-propylcyclohex-2-en-1-one], the Number of cells was 0.84 (1 μM compound); 0.82 (3 μM compound); 0.87 (5 μM compound); 0.77 (10 μM compound); 0.92 (30 μM compound); 0.82 (100 μM compound).

With `COCCCCCCCCCCCCCCCC1=C(C(C)C)C(=O)CCC1(C)C` [Compound 62, 2-isopropyl-3-(15-methoxypentadecyl)-4,4-dimethylcyclohex-2-en-1-one], the Number of cells amounted to 0.92 (1 μM compound); 0.89 (3 μM compound); 0.83 (5 μM compound); 0.78 (10 μM compound); 0.91 (30 μM compound); 0.91 (100 μM compound).

Take `COCCCCCCCCCCCCCCCC1C(C)C(=O)CCC1(C)C` (stereo not drawn) [Compound 63, 3-(15-methoxypentadecyl)-2,4,4-trimethylcyclohexan-1-one]: the Number of cells runs as follows: (1 μM compound) 1.13; (3 μM compound) 1.05; (5 μM compound) 0.84; (10 μM compound) 0.91; (30 μM compound) 1.11; (100 μM compound) 1.16.

As to `COCCCCCCCCCCCCCCCC1=C(C)CCCC1(C)C` [Compound 64, 2-(15-methoxypentadecyl)-1,3,3-trimethylcyclohex-1-ene], the Number of cells runs as follows: (1 μM compound) 0.80; (3 μM compound) 0.93; (5 μM compound) 0.96; (10 μM compound) 0.88; (30 μM compound) 0.96; (100 μM compound) 0.53.

In turn, `COCCCCCCCCCCCCCCCC1=C(C)C(O)CCC1(C)C` (stereo not drawn) [Compound 65, 3-(15-methoxypentadecyl)-2,4,4-trimethylcyclohex-2-en-1-ol] displayed a Number of cells (1 μM compound) of 1.05; a Number of cells (3 μM compound) of 1.09; a Number of cells (5 μM compound) of 0.86; a Number of cells (10 μM compound) of 0.87; a Number of cells (30 μM compound) of 1.05; a Number of cells (100 μM compound) of 1.09.

With `COCCCCCCCCCCCCCCCC1=C(C)C(N)CCC1(C)C` (stereo not drawn) [Compound 66, 3-(15-methoxypentadecyl)-2,4,4-trimethylcyclohex-2-en-1-amine], the Number of cells reads like this: (1 μM compound) 1.15; (3 μM compound) 1.11; (5 μM compound) 0.80; (10 μM compound) 0.79; (30 μM compound) 0.39; (100 μM compound) 0.04.

In the case of `COCCCCCCCCCCCCCCCC1=C(C)C(=NO)CCC1(C)C` [Compound 67, 3-(15-methoxypentadecyl)-2,4,4-trimethylcyclohex-2-en-1-one oxime], the Number of cells was 0.92 (1 μM compound); 0.89 (3 μM compound); 0.80 (5 μM compound); 0.75 (10 μM compound); 0.94 (30 μM compound); 0.93 (100 μM compound).

Take `COCCCCCCCCCCCCCCCC1=C(C)/C(=N/OC)CCC1(C)C` [Compound 68, 3-(15-methoxypentadecyl)-2,4,4-trimethylcyclohex-2-en-1-one O-methyloxime]: the Number of cells (1 μM compound) stood at 0.85; the Number of cells (3 μM compound) is listed as 0.92; the Number of cells (5 μM compound) was 0.73; the Number of cells (10 μM compound) was found to be 0.71; the Number of cells (30 μM compound) is 0.95; the Number of cells (100 μM compound) was 0.89.

Turning to `COCCCCCCCCCCCCCCCC1=C(C)C(=O)CC1(C)C` [Compound 69, 3-(15-methoxypentadecyl)-2,4,4-trimethylcyclopent-2-en-1-one], the Number of cells by setting is: (1 μM compound) 0.89; (3 μM compound) 0.89; (5 μM compound) 0.75; (10 μM compound) 0.80; (30 μM compound) 0.70; (100 μM compound) 0.47.

The values above are taken from US20230295068A1, “NOVEL CYCLOALKENONE COMPOUND OR SALT THEREOF” (TAIHO PHARMACEUTICAL CO., LTD., priority 2020, published 2023).
